The values that follow are results of earlier work, collected in patent US20240197637A1, “POLYMERIC MICROPARTICLES FOR THE LOCAL TREATMENT OF CHRONIC INFLAMMATORY DISEASES” (FONDAZIONE ISTITUTO ITALIANO DI TECNOLOGIA, priority 2021, published 2024).

The series deals with DMM murine model of injury-induced OA.

As for `Cc1ccc2c(c1)C1(CCN(CCc3nc(-c4ccccc4)oc3C)CC1)OC(=O)N2` [RS 504393], the pain perception result (orally and daily administered) was “decreased”. In addition, for the setting “orally and daily administered, early OA stage”, the “severity of structural damage” value was “decreased the severity of structural damage”. For the same molecule, under “prolonged and delayed exposure”, the “cartilage and bone damage” value is recorded as “did not translate in a significant reduction”; the pain result is on record as “alleviating pain”.
